The values that follow come from patent US9044491B2, “Method for improving blood flow using stilbenoid derivatives” (The Board of Trustees of the University of Arkansas, priority 2010, dated 2015).

Where two headings read alike, the source gives them in different places.

The target of one series is T1, human CB2 (Homo sapiens, UniProt P34972).
T1 construct: expressed in transfected cells; host or cells: CHO cells stably transformed with human CB2
Description: CB2 binding, 3H-CP 55,940 displacement in CHO-hCB2 membranes. The note with it: 0.2 nM 3H-CP 55,940.

Series [1] deals with T2, CB1 receptors (Mus musculus, UniProt P47746).
T2 construct: from tissue; host or cells: mouse brain membranes
The format is biochemical.

For series [2], the system named is CLP or Control (Sham) mice. The series can be described thus: Renal arterial blood flow by Doppler flow probe. It counts as in vivo, mouse. The following applies: CPL-treated mice. The source says: Under isoflurane anesthesia, the right kidney was exposed by flank incision and the renal artery and vein were carefully dissected from surrounding tissue with Dumont-5 forceps. The renal artery was isolated from the vein and a Transonic Systems (Ithaca, N.Y.) 0.5 PSL renal artery Doppler flow probe was positioned around the renal artery. The probe was calibrated in water using the zero and scale settings on the TS420 flowmeter (Transonic Systems). […] Body temperature was maintained at 36 to 37° C. with a heating lamp. Data were expressed in ml/min/g kidney weight.
Renal blood flow was measured essentially as described above in Example 10 following CPL surgery or control treatment (no surgery). CPL-treated mice were administered 10 mg/kg of resveratrol, 2.5 mg/kg of resveratrol-3-sulfate, or vehicle. […] In fact, resveratrol-3-sulfate produced the same degree of reversal at 25% of the dose of resveratrol.

The test system of series [3] is CB1 receptors. The format is biochemical, mouse. The note with it: 10 μM compound, 30 min at 30° C.
The next series has as its target T3, human UGT1A1 (Homo sapiens, UniProt P22309).
T3 sequence (P22309 26-533): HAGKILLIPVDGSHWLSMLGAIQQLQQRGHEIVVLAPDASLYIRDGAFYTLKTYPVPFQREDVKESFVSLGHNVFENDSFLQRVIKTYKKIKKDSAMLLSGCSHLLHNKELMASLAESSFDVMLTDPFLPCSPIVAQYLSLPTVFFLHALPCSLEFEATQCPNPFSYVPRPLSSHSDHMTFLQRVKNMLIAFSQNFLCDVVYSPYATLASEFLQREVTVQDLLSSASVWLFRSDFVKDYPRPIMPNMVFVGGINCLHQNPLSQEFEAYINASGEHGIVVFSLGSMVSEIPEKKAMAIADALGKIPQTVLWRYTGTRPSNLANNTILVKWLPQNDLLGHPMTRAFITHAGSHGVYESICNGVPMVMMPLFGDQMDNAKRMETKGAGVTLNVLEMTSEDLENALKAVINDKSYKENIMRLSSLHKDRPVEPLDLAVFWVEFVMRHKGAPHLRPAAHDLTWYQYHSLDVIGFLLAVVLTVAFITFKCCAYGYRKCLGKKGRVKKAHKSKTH
Description: Glucuronidation by recombinant human UGT1A1 (activity and kinetic constants).

In a further series the target is T4, human UGT1A10 (Homo sapiens, UniProt Q9HAW8).
T4 sequence (Q9HAW8 26-530): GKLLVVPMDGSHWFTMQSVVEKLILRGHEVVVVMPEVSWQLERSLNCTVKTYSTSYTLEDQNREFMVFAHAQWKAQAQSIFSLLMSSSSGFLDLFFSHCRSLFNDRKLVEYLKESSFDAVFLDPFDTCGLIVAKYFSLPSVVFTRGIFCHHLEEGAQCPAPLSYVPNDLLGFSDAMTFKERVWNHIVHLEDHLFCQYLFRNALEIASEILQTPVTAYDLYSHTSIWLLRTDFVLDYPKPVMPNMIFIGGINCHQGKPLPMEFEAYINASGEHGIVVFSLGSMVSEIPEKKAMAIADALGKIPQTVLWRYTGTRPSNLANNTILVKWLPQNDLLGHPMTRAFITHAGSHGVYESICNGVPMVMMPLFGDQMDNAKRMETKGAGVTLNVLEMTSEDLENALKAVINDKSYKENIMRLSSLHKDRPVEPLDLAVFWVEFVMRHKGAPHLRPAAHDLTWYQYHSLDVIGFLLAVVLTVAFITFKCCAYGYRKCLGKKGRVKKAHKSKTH
Description: Glucuronidation by recombinant human UGT1A10 (activity and kinetic constants).

Series [4] has as its system human intestinal microsomes. Description: Glucuronidation by human intestinal microsomes. The format is in vitro ADME. The following applies: substrate 250 μM, UDP-GlcUA 4 mM. As for the experimental part:
Glucuronidation products were analyzed by HPLC and LCMS/MS.

Series [5] concerns the target T2, CB1 receptors. Description: CB1 binding, 3H-CP 55,940 displacement in mouse brain membranes. The following applies: isoprenyl group and additional hydroxyl group.
Description: (§1) Membrane preparations were prepared from mouse brain to examine CB1 binding. For CB2 binding, membrane preparations were prepared from CHO cells stably transformed with human CB2.

T1 sequence (P34972 whole entry): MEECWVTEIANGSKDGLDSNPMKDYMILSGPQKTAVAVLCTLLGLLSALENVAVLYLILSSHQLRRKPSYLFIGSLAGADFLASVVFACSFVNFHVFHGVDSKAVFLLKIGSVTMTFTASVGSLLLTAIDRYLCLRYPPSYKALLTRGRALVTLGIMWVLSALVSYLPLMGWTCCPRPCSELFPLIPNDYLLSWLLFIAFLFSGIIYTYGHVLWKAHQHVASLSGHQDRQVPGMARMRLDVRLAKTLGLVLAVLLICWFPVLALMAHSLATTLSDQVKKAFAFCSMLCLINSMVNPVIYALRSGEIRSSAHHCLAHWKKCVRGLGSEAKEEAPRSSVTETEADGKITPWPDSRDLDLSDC
T2 sequence (P47746 whole entry): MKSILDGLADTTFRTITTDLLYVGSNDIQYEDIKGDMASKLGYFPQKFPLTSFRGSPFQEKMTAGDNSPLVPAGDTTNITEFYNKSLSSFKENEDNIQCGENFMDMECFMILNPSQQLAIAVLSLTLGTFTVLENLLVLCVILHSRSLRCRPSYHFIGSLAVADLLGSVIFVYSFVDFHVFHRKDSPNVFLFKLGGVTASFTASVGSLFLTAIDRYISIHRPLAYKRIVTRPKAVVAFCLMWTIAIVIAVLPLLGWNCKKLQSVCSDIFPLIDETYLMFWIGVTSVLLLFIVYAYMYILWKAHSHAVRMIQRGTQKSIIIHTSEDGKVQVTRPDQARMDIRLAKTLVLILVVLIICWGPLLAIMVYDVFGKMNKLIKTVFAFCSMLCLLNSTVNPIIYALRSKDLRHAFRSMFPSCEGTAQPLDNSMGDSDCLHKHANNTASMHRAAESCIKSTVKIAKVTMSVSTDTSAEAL
Description for human CB2: as §1
Description for human UGT1A10: Eight human recombinant UGT1A isoforms (UGT1A1, 1A3, 1A4, 1A6, 1A7, 1A8, 1A9, and 1A10; 5 μg) expressed as His-tag proteins in baculovirus-infected Sf9 insect cells and human liver microsomes (from one donor; HL2; 50 μg) and human intestinal microsomes (from two donors; HI36 and HI41; 50 μg) were evaluated for their ability to glucuronidate these four compounds. The concentrations of the substrate and co-substrate (i.e., UDP-GlcUA) were 250 μM and 4 mM, respectively. Glucuronidation products were analyzed by HPLC and LCMS/MS.
The kinetic constants of the glucuronidation reactions using recombinant human UGT1A1 and UGT1A10 were determined by measuring the enzyme activity in the presence of increasing concentrations of substrate (see FIG. 2).

On to `O=C(O)[C@H]1O[C@@H](Oc2cc(O)cc(/C=C/c3ccc(O)c(O)c3)c2)[C@H](O)[C@@H](O)[C@@H]1O` [3-Gluc-tPice], for which, on human CB2, the Ki was above 100 µM.
`O=C(O)[C@H]1O[C@@H](Oc2ccc(/C=C/c3cc(O)cc(O)c3)cc2)[C@H](O)[C@@H](O)[C@@H]1O` [4′-Gluc-rRes]: on human CB2, the Ki is above 100 µM.
`CCCCCCC(C)(C)c1ccc([C@@H]2C[C@H](O)CC[C@H]2CCCO)c(O)c1` [CP-55,940]: on CB1 receptors [1] (1 μM compound, 30 min at 30° C.), the G-protein activity entry is on record as “stimulated”. For the same molecule, at CB1 receptors [1] (CP-55,940 alone), the “maximal response produced by CP-55,940” value is 0.34±0.03 pmole/mg protein. Besides, the EC50 at CB1 receptors [1] (CP-55,940 alone, read-out: ED50 required to activate G-proteins) was found to be 0.0043 µM.
With `O=S(=O)(O)Oc1cc(O)cc(C=Cc2ccc(O)cc2)c1` [resveratrol-3-sulfate], the “dose producing the same degree of reversal, relative to resveratrol” value in series [2] is reported as 25 % of the dose of resveratrol. Also, the renal blood flow entry in series [2] (2.5 mg/kg (Example 15)) was “increased blood flow”.
For the molecule `CC(C)/C=C/c1c(O)cc(/C=C/c2ccc(O)cc2)cc1O` [tA3, trans-arachidin-3], at CB1 receptors [1] (in the presence of 30 μM tA-3, read-out: ED50 of CP-55,940 required to activate G-proteins), the EC50 amounted to 0.127 µM. In addition, in the series with CB1 receptors [3], the “basal G-protein activity” value was “little effect”. Moreover, the Kinetics entry on human UGT1A1 (product 3-glucuronide (3G)) is listed as “M-M”; at human UGT1A1 (product 4′-glucuronide (4′G)), “M-M”; at human UGT1A10 (product 4′-glucuronide (4′G)) it was “USI”. The “kinetics of 4′-O-Gluc formation by UGT1A10” value on human UGT1A10 is “substrate inhibition kinetics”.
Take `Oc1cc(O)cc(/C=C/c2ccc(O)c(O)c2)c1` [tPice, trans-piceatannol]: at human CB2, the inhibition constant Ki is 114 ± 7.8 µM. The “basal G-protein activity” value in the series with CB1 receptors [3] is recorded as “markedly reduced”. For the same molecule, the Kinetics result is recorded as “M-M” on human UGT1A1 (product 3-glucuronide (3G)), “M-M” at human UGT1A1 (product 4′-glucuronide (4′G)), “M-M” at human UGT1A10 (product 3-glucuronide (3G)) and “Hill” on human UGT1A10 (product 4′-glucuronide (4′G)). Further, on human UGT1A10 (product 4′-glucuronide (4′G)), the “n (Hill coeff)” value was found to be 1.7.
trans-arachidin-1 [tA1]: in series [4], the “production of 3G glucuronide by HIM” value is “large amount”. For the same molecule, the “enhancement of binding affinity for CB1” value at CB1 receptors [5] is given as 2 fold. Also, the “maximal response produced by CP-55,940” value at CB1 receptors [1] (in the presence of 10 μM tA-1) is reported as 0.22±0.04 pmole/mg protein. Also, the EC50 at CB1 receptors [1] (in the presence of 10 μM tA-1, read-out: ED50 of CP-55,940 required to activate G-proteins) came out at 0.028 µM. In the series with CB1 receptors [3], the “basal G-protein activity” value was “markedly reduced”. Further, on human UGT1A10, the “kinetics of 4′-O-Gluc formation by UGT1A10” value was “substrate inhibition kinetics”. Besides, the Kinetics result on human UGT1A10 (product 4′-glucuronide (4′G)) was “USI”.
